Legend:
[1] = test system: Aspergillus spp. clinical isolates; assay: 2017 and 2018 surveillance of antifungal activity against Aspergillus clinical isolates (MEC); type: cell-based; conditions: Aspergillus isolates likely to be found in the clinical patient population
Method: The MEC in […] (MEC90) for Aspergillus isolates likely to be found in the clinical patient population under study is 0.03 μg/mL.

[2] = biological target: fungal glycosylphosphatidylinositol (GPI)-anchored wall transfer protein 1 (GWT1) enzyme (Saccharomyces cerevisiae, UniProt P47026); assay: Inhibition of fungal GWT1 enzyme; type: biochemical
fungal glycosylphosphatidylinositol (GPI)-anchored wall transfer protein 1 (GWT1) enzyme, sequence (P47026 whole entry): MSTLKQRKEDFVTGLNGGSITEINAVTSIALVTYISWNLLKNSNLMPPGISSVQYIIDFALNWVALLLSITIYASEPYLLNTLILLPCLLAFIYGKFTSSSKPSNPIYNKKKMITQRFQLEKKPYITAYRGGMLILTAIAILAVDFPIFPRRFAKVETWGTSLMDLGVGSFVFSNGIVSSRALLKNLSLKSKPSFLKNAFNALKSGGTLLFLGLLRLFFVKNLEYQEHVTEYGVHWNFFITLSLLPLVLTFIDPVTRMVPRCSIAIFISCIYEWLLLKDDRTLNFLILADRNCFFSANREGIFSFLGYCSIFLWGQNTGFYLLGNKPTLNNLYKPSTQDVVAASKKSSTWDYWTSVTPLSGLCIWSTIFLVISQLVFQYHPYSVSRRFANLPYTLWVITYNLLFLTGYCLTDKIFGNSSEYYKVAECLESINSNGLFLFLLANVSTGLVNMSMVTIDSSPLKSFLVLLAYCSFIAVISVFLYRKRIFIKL
Excerpt: (§1) Compound 1A inhibits the fungal glycosylphosphatidylinositol (GPI)-anchored wall transfer protein 1 (GWT1) enzyme, a highly conserved inositol acylase that catalyzes an early step in the GPI-anchored biosynthesis pathway. This inhibition has pleiotropic effects on the fungal cell due to inhibition of cell wall mannoprotein localization, which comprises cell wall integrity, biofilm formation, germ tube formation, and fungal growth.

[3] = test system: Aspergillus fumigatus, Scedosporium prolificans, and Fusarium solani; assay: 5-fluorouracil immunosuppressed mice with IMIs; type: in vivo
[4] = test system: Candida spp., Cryptococcus spp., Aspergillus spp., Scedosporium spp., Fusarium spp., and some Mucorales fungi; assay: In vitro antifungal activity; type: cell-based
Excerpt: These rare mold and rare yeast species generally pose no threat to healthy subjects, but can lead to invasive mold infections in immunocompromised individuals.

[5] = biological target: T1, phosphatidylinositol glycan anchor biosynthesis class W (PIGW) protein (Homo sapiens, UniProt Q7Z7B1); assay: Inhibition of PIGW, closest mammalian ortholog of GWT1; type: biochemical; conditions: closest mammalian ortholog of the fungal GWT1 protein
T1 sequence (Q7Z7B1 1-504): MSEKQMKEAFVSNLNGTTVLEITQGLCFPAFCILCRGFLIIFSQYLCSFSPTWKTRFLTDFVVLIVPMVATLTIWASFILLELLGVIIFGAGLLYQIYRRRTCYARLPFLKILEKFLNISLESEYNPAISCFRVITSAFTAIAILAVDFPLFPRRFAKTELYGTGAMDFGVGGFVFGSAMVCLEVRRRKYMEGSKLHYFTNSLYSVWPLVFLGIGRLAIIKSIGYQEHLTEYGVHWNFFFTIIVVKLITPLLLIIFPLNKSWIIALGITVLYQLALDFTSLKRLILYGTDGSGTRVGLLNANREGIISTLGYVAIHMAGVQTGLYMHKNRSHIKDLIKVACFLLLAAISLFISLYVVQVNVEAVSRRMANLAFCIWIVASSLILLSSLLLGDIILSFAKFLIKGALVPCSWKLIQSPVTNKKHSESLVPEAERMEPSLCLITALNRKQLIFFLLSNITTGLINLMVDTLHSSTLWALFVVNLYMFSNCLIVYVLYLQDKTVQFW
Excerpt: as §1

A. fumigatus = assay: PK-PD study in immunocompromised mice infected with 6 strains of A. fumigatus; type: in vivo; conditions: fungal burden (CEs by qPCR) in lung homogenates at 96 hours; 6 A. fumigatus strains
Method: Pharmacokinetic-pharmacodynamic (PK-PD) studies in immunosuppressed mice with invasive infections caused by A. fumigatus have shown that the area under the concentration-time curve (AUC) divided by the minimal effective concentration (MEC) ratio is the driver of efficacy.
In a pharmacokinetic/pharmacodynamic (PK-PD) study, immunocompromised mice were infected with 6 strains of A. fumigatus, inclusive of wild type, azole-resistant, and echinocandin-resistant strains. Groups of animals were dosed with compound 1 at different dose fractionations. […] The stasis and 1-logarithm drop endpoints were defined as the quantity of A. fumigatus in CEs just prior to compound 1 administration compared to CEs at the endpoint of assessment at 96 hours.

[6] = test system: Fusarium, Aspergillus/Lichtheimia, C. albicans, L. prolificans infection; conditions: human, in vivo
Excerpt: Population: A total of 15 patients with life-threatening/serious fungal infections received treatment, with slight modifications. […] Of these patients, 12 have an invasive Fusarium infection, while the remaining patients have Aspergillus/Lichtheimia infection, C. albicans infection, and L. prolificans infection. […] These patients show a broad range of fungal infection sites with sinus, spine, ankle, skin, eye, brain, and disseminated infections all observed. Many of these patients also have an underlying disease/condition, such as AML/ALL/MDS, SC/solid organ transplantation, or trauma.
Updates to Dosing Regimen: Seven patients received IV dosing of compound 1, and six of these seven switched to oral doses. Eight patients received oral doses only. […] Additionally, eight patients received oral compound 1 at 400 mg BID rather than 800 mg QD.

[7] = in vivo
[8] = Phase 1, healthy volunteers
Excerpt: The duration of the multiple-dose regimens in these studies was 7, 14, and 42 days (6 weeks).
One dose regimen of compound 1 will be evaluated in this study.

[9] = test system: Aspergillus spp. or rare molds; assay: Phase 2 open-label study in patients with invasive mold infections; type: in vivo, human; conditions: 12 patients treated
Excerpt: This is a Phase 2, multicenter, open-label, non-comparative study to evaluate the safety and efficacy of compound 1 for the treatment of IMIs caused by Aspergillus spp. or rare molds (e.g., Scedosporium spp., Fusarium spp., and Mucorales fungi). Patients 18 years of age or older will undergo Screening procedures for up to 5 days, following which eligible patients will participate in the study drug Treatment Period for up to 6 weeks, with a Follow-Up Visit 4 weeks after EOST, and a Follow-Up Phone Call 12 weeks after Day 1 (Day 84). The total duration of a patient's participation in the study will be approximately 12 weeks, inclusive of the follow-up telephone call required on Day 84. Patients who require treatment for longer than 6 weeks can be switched to other licensed antifungal therapy (OLAT) at the discretion of the Investigator and in consultation with the Medical Monitor if the situation allows.
This study will consist of a single treatment arm consisting of a loading dose of 1000 mg compound 1, administered over 3 hours by IV infusion twice daily (BID) within the first 24 hours after initiation of the first infusion. On Days 2 and 3, 600 mg compound 1 will be administered over 3 hours by IV infusion once daily (QD). […]

Structure (SMILES)	MEC90 [1]	inhibition of fungal GWT1 enzyme [2]	pulmonary fungal colony counts [3]	survival rates [3]	in vitro antifungal activity ([4]; including azole- and echinocandin-resistant strains)	antifungal activity against clinical isolates of rare mold and rare yeast infections ([4]; rare molds and rare yeasts listed)	inhibition of PIGW protein [5]	median total drug AUC/MEC which achieved 1-logarithm kill endpoint (A. fumigatus)	median total drug AUC/MEC which achieved stasis endpoint (A. fumigatus)	tolerability over extended treatment durations [6]	conversion of prodrug to active moiety compound 1A [7]	tissue distribution [7]	safety and tolerability of the dose regimen [8]	patients with good response (at Day 42 or earlier) [9]
Nc1ncccc1-c1cc(Cc2ccc(COc3ccccn3)cc2)no1 [Compound 1A]	0.03 µg/mL	inhibits	reduced pulmonary fungal colony counts	statistically significantly improved survival rates	broad in vitro antifungal activity	antifungal activity against a broad range of clinical isolates	does not inhibit							
Nc1c(-c2cc(Cc3ccc(COc4ccccn4)cc3)no2)ccc[n+]1COP(=O)([O-])O [compound 1]								5258.2	2801.6	generally well tolerated	rapidly converted in vivo by phosphatases	wide-tissue distribution, including the eye and central nervous system	safe and well tolerated	8 patients

Source: US12521406B2, “Use of compounds in the treatment of fungal infections” (Basilea Pharmaceutica International AG, Allschwil, priority 2020, dated 2026)
